For assay [1], the target named is T1, c-fms intracellular domain (Homo sapiens, UniProt P07333).
T1 construct: The c-fms intracellular domain was expressed from a baculovirus expression system, as an amino-terminal GST fusion protein; GST (N); made in house; host or cells: baculovirus expression system
T1 sequence (P07333 539-972 limits assumed): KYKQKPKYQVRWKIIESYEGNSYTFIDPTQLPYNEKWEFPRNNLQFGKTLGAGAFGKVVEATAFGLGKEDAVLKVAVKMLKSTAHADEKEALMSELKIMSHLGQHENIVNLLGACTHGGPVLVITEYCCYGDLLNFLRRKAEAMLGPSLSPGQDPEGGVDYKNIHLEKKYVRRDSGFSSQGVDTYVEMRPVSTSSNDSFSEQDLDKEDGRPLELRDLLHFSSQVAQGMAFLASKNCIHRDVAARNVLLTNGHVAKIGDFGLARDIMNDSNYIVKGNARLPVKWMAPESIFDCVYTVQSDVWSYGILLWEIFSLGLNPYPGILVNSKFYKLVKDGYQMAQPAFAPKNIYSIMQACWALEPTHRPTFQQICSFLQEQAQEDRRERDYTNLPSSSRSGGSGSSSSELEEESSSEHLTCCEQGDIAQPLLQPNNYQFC
In words: c-fms protein kinase assay. It is filed as biochemical. The conditions noted are these: 1.7 μM ATP, 90 min at room temperature; read-out: Kinase inhibition c-fms (IC50). Here is the method:
c-fms protein kinase assays utilized the peptide substrate, biotin-[…]-NH2, as the phosphoryl group acceptor. The c-fms intracellular domain was expressed from a baculovirus expression system, as an amino-terminal GST fusion protein, and purified to homogeneity using Glutathione agarose from Sigma Chemical Co. Maximum activation of the enzyme was achieved by preactivation at room temperature for 120 min in the presence of 100 μM ATP and 15 mM MgCl2, This enzyme stock was diluted to 150 nM prior to using in the assay. Typically assays were performed in white, opaque, 96-well plates in a 45 ul assay volume including 15 ul 6% DMSO, with or without compounds, 15 ul of the preactivated, diluted enzyme, and 15 ul of a substrate mixture. Reactions contained 50 mM HEPES, pH 7.5, 1.7 μM ATP, 15 mM MgCl2, 3 μM peptide, 2.5 mM DTT, 50 mM NaCl and 0.15 uCi/assay [^32P]ATP. The controls were reactions in the presence (negative controls) or absence (positive controls) of 50 mM EDTA. Reactions were allowed to proceed for 90 min at room temperature. The reaction products were quantified using Scintillation Proximity technolgy. […] Plates were sealed and counted in a Packard Topcount scintillation counter. […]

Assay [2] has as its system human umbilical vein endothelial cells (HUVECs). In words: HUVEC BrdU incorporation, VEGF stimulation. It counts as cell-based. The conditions noted are these: 20 ng/ml VEGF, 72 hrs; read-out: Inhibition of BrdU incorporation in HUVEC cells, VEGF stimulation (IC50). (Dividing cells build labelled thymidine or BrdU into new DNA.)
Text: (§1) An assay to measure this effect involves measurement of the inhibition of bromo-deoxy uridine (BrdU) incorporation (evidence of DNA synthesis) in human umbilical vein endothelial cells (HUVECs).
(§2) HUVEC cells and EGM (Endothelial cell growth medium) were purchased from Clonetics (San Diego, Calif.). VEGF and bFGF were purchased from Genzyme. M199 medium (Gibco BRL) with BSA (Sigma) was used for cell culture in Type I collagen coated plates (Becton Dickinson). The degree of BrdU incorporation was measured using a commercial colorimetric ELISA assay from Boehringer Mannheim.
(§3) HUVECs were plated at a density of 2500 cells per well in M199 medium containing 5% FBS (Hyclone) in a Type-I Collagen coated plate. The plate was incubated at 37° C. overnight. The medium was removed by aspiration, and test compounds were added to each well in a volume of 0.1 ml per well in serum-free M199 medium. […] The plate was incubated for 30 min at 37° C. Another 0.1 ml of serum-free M199 medium containing BSA and VEGF (or bFGF) was added to give a final concentration of 0.1% BSA and 20 ng/ml VEGF (0.3 ng/ml bFGF). The plate was incubated at 37° C. for 72 hrs. BrdU was added to each well after the first 48 hrs to give a concentration of 10 micomolar. The calorimetric ELISA assay was performed according to manufacturer's instructions, with detection by absorbance reading at 450 nm.
Assay [3] has the same test system. Briefly: HUVEC BrdU incorporation, bFGF stimulation. The conditions noted are these: 0.3 ng/ml bFGF, 72 hrs; read-out: Inhibition of BrdU incorporation in HUVEC cells, BFGF Stimulation (IC50). It counts as cell-based.
Text: as §1, §2, §3

IC50 data for one compound are collected here from patent publication US6498176B1, “3-(anilinomethylene) oxindoles as protein tyrosine kinase and protein serine/threonine kinase inhibitors” (SmithKlineBeecham Corporation, priority 1999, dated 2002).

For the compound `O=C1Nc2ccc3ncccc3c2/C1=C/Nc1ccc(CCO)cc1` [Example 32], the IC50 in assay [1] was more than 100 nM; in assay [2], 10 to 500 nM; in assay [3], 1100 to 5000 nM.
